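In this assay, cells in 96-well plates receive the compound at five concentrations for 48 hours. Endpoints are linearly interpolated between the surrounding concentrations. The concentration for 50% growth inhibition is given as GI50.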 The source made the active and inactive calls. Cut-off read from the data, not from the text of the source: active = GI50 up to about 1.1 µM and inactive = higher. Where a SMILES comes first, the peptide text is derived from it. [ ]: non-standard residue; d: D form. Phe(4-NO2) = N[CH](Cc1ccc([N+](=O)[O-])cc1)C(=O)O
Legend:
Test in all cases: NCI anticancer screen, dose series, 48 h
CCRF-CEM = system: CCRF-CEM
COLO 205 = system: COLO 205
K562 = system: K562
KM12 = system: KM12
M14 = system: M14
MDA-MB-435 = system: MDA-MB-435
MOLT-4 = system: MOLT-4
Malme-3M = system: Malme-3M
NCI-H23 = system: NCI-H23
OVCAR-4 = system: OVCAR-4
OVCAR-5 = system: OVCAR-5
OVCAR-8 = system: OVCAR-8
SF-268 = system: SF-268
SF-295 = system: SF-295
SK-OV-3 = system: SK-OV-3
U-251 = system: U-251
UACC-257 = system: UACC-257
UO-31 = system: UO-31
SK-MEL-2 = system: SK-MEL-2
PC-3 = system: PC-3

Measured: GI50

CN1c2ccccc2C(=O)NC12CCN(CC1COc3ccccc3O1)CC2 (stereo unspecified)
inactive: CCRF-CEM 36.1 µM | COLO 205 48.3 µM | K562 31.3 µM | KM12 32.6 µM | M14 27.8 µM | MDA-MB-435 33.4 µM | MOLT-4 23.1 µM | Malme-3M 33 µM | NCI-H23 45.8 µM | OVCAR-4 29.9 µM | OVCAR-5 48.6 µM | OVCAR-8 60.5 µM | SF-268 > 100 µM | SF-295 57.7 µM | SK-OV-3 > 100 µM | U-251 40.2 µM | UACC-257 22 µM | UO-31 16.9 µM

O=C(c1ccncc1)C1C(=O)c2ccccc2C1C1(O)c2ccccc2CC1C(O)c1ccncc1 (stereo unspecified)
inactive: COLO 205 47.6 µM | K562 42 µM | KM12 35.3 µM | M14 25.8 µM | MDA-MB-435 16.9 µM | MOLT-4 15.1 µM | Malme-3M 58.7 µM | NCI-H23 48.6 µM | OVCAR-4 27.9 µM | OVCAR-5 65.6 µM | OVCAR-8 60 µM | SF-268 46.7 µM | SF-295 31.4 µM | SK-MEL-2 23.6 µM | SK-OV-3 7.96 µM | U-251 41 µM | UACC-257 52.7 µM | UO-31 13.9 µM

Cc1cc2c(cc1N)C(C)C1(CCC(=O)N2Cc2ccccc2)OCCO1 (stereo unspecified)
inactive: KM12 > 100 µM | M14 > 100 µM | MDA-MB-435 > 100 µM | MOLT-4 > 100 µM | Malme-3M 89.7 µM | NCI-H23 > 100 µM | OVCAR-4 > 100 µM | OVCAR-5 > 100 µM | OVCAR-8 > 100 µM | PC-3 > 100 µM | SF-268 83.4 µM | SF-295 > 100 µM | SK-MEL-2 > 100 µM | SK-OV-3 > 100 µM | U-251 > 100 µM | UACC-257 > 100 µM | UO-31 > 100 µM

COC(=O)CCC(NC(=O)C(CCC(=O)OC)NC(=O)C(CCC(=O)OC)NC(=O)C(CCC(=O)OC)NC(=O)C(CCC(=O)OC)NC(=O)C(Cc1ccc([N+](=O)[O-])cc1)NC(=O)C(CCC(=O)OC)NC(=O)C(CCC(=O)OC)NC(=O)C(CCC(=O)OC)NC(=O)C(CCC(=O)OC)NC(=O)C(CCC(=O)OC)NC(C)=O)C(N)=O (stereo unspecified) (Ac-E(OMe)E(OMe)E(OMe)E(OMe)E(OMe)[Phe(4-NO2)]E(OMe)E(OMe)E(OMe)E(OMe)E(OMe)-NH2; configuration not given here)
inactive: CCRF-CEM > 100 µM | COLO 205 > 100 µM | KM12 > 100 µM | M14 37.9 µM | MDA-MB-435 > 100 µM | MOLT-4 > 100 µM | Malme-3M > 100 µM | NCI-H23 > 100 µM | OVCAR-4 > 100 µM | OVCAR-5 > 100 µM | OVCAR-8 > 100 µM | SF-268 > 100 µM | SF-295 31.4 µM | SK-MEL-2 > 100 µM | SK-OV-3 99.3 µM | U-251 > 100 µM | UACC-257 > 100 µM | UO-31 > 100 µM

— ChEMBL document CHEMBL1201862, “PubChem BioAssay data set” (2004)
